Assay results from PMC7915858, “Complementary Effects of Carbamylated and Citrullinated LL37 in Autoimmunity and Inflammation in Systemic Lupus Erythematosus” (International Journal of Molecular Sciences, 2021).

How the values were obtained:
[1] = system: SLE serum antibody; experiment: ELISA for antibody reactivity of SLE sera to carb-/cit-/native LL37 and carb-REV, and its correlation with SLEDAI; assay type: binding, human; settings: for Antibody reactivity in SLE patients with renal damage versus without renal damage: N=6 with and N=44 without renal damage, Mann-Whitney, Figure S3 panel a P 0.047
Procedure: Anti-native LL37/cit-LL37/carb-LL37 antibodies were measured as described. Briefly, 96-well flat-bottom plates (Non-Binding surface polystyrene, Corning, Glendale, AZ USA) were coated with 2 μg/mL of native LL37, cit-LL37 or carb-LL37 in carbonate buffer (0.1 M NaHCHO3, pH 9) for 2 h (or overnight) and washed four times with PBS plus 0.1% Tween-20. This washing buffer was used for washing at all steps. The blocking buffer containing 2% bovine serum albumin (BSA, Sigma) in PBS was used for at least 1 h (or overnight) to saturate unspecific binding sites. After washing, sera were diluted at various concentrations (usually at 1:100 or 1:200) in PBS + 2% BSA followed by 1 h incubation with a horseradish peroxidase–conjugated (HRP) goat anti-human IgG (Sigma-Aldrich), diluted 1:10,000 in PBS. The color was developed for 5 min with 3,3′,5,5′-tetramethylbenzidine (TMB) substrate (Sigma-Aldrich). The reaction was stopped by adding 50 μL of 2 N H2SO4 and absorbance determined at 450 nm with a reference wavelength of 540 nm. Responses were considered positive when the OD measured exceeded the mean OD values measured in healthy donors’ plasma plus two standard deviations (+2SD), calculated on the HD group values, as described.
(§1) Differences between mean values were assessed by Wilcoxon’s matched-pair signed rank test, to compare responses to antigens and control antigens in the same donor. We used Mann-Whitney test for comparison of T-cell and antibody responses between groups of patients and HD. Statistical significance was set at p < 0.05. Correlation analyses were performed by Spearman’s rank-correlation test. Data were analyzed by GraphPad Prism 7.0 or SPSS software.

[2] = system: SLE CD4 T-cells; experiment: T-cell proliferation (BrdU incorporation, flow cytometry); assay type: cell-based, human; settings: for SLE patients responding by T-cell proliferation: BrdU, positive if SI > 3, carb-LL37 8 of 25, native LL37 17 of 31, cit-LL37 16 of 31 SLE patients
Procedure: PBMCs were purified from EDTA-treated blood, on Ficoll-Hypaque (Pharmacia Fine Chemicals, Uppsala, Sweden) and were incubated (10^5 cells/well) in 96-well-flat-bottom-microplates (BD) in T-cell-medium (RPMI 1640, 10% heat-inactivated human serum, HS, Gibco), 2 mM L-glutamine, 10 U/mL penicillin and 100 μg/mL streptomycin), with/without peptides. We performed assays on fresh cells, within 1-to-3 h from collection or on PBMCs frozen in 90% FCS−10% DMSO, whose viability we assessed by Trypan blue exclusion, with an inverted microscope. Recovery of live cells was between 65 and 85% of the frozen number. At day 3 and 5, BrdU was added (1 μg/mL). BrdU-incorporation was detected by APC-labeled anti-BrdU antibody (BD Pharmingen), after surface staining for CD4, CD3, CD8 and analyzed by flow cytometry (Gallios, BeckmanCoulter, Brea, CA, USA). Internal control for T-cell viability and proliferation was PHA treatment (2 μg/mL). SI for proliferation was calculated by dividing percent of BrdU-staining in the presence of each peptide antigen (LL37, carb-LL37, cit-LL37, LL37 reverse, REV; cit-LL37 reverse, cit-REV; carb-LL37 reverse, carb-REV) by the percent obtained in the untreated cells. SI for proliferation was considered positive when the values of percent of BrdU positive cells was three times higher than the values obtained with the control peptides (SI > 3). Assays were repeated twice with each patient. In rare cases in which background proliferation (culture with REV, cit-REV, carb-REV), exceeded antigen-specific proliferation (that is response to LL37, carb-LL37, cit-LL37), the assay was repeated three times. Concomitant phenotype analysis of LL37-responder T-cells included staining for CD3, CD4, CD8, CXCR5 (CXCR5 was assessed on BrdU/CD3/CD4-positive cells).
as §1

[3] = Net charge of the peptides; assay type: physicochemical
[4] = system: pDCs; experiment: IFN-α production by purified pDCs stimulated with peptide-DNA complexes; assay type: cell-based, human; settings: 24 h, ELISA; for IFN-α response of pDCs to peptide alone: peptide without DNA
Procedure: Buffy-coats from HD were from Centro Trasfusionale, Policlinico Umberto I, Rome, IT. After separation of mononuclear cells by Ficoll centrifugation, pDCs were purified as described, by using the Diamond Plasmacytoid Dendritic Cell Isolation Kit (Miltenyi Biotec, Bergisch Gladbach, Germany) to obtain 99% purity. Purified pDCs were seeded into 96-well round-bottom plates at 3.5/5 × 10^4 cells per well in 200 μL RPMI 1640 (GIBCO), supplemented with 10% fetal calf serum (FCS), 1% Hepes and 1% sodium pyruvate. LL37, cit-LL37 and carb-LL37 were premixed with total human genomic DNA (extracted from PBMC of HD, see below) (15 μg/mL). After 15 min incubation at room temperature the mix was added to the pDC cultures. IFN-α in supernatants was measured by ELISA (MabTech, Stockholm, Sweden), after 24 h (according to the manufacturer’s instructions).
Human DNA was extracted from PBMCs, as reported and was fragmented by sonication. Five milligrams of DNA in a volume of 300 μL were fragmented using the Sonics Vibra Cell sonicator (Newtown, CT, USA), with the following settings: 2, 4 and 10 sonication cycles (30 s on, 30 s off, in ice) to obtain DNA fragment sizes between 100 and 1000 bp. The resulting size distribution was controlled by 2% agarose gel electrophoresis.

| Substance | SLE patients showing an antibody response to the antigen ([1]; ELISA, 2 μg/mL coated antigen, sera 1:100 or 1:200, OD 450 nm, positive: OD > mean HD + 2SD, carb-LL37 28 of 45, carb-REV 8 of 47 SLE patients) [%] | SLE serum antibody reactivity (OD) compared to healthy donors ([1]; ELISA, OD, Mann-Whitney's test) | Antibody reactivity in SLE patients with renal damage versus without renal damage ([1]; ELISA) | Correlation of antibody reactivity with SLEDAI ([1]; Spearman) | Correlation of anti-carb-LL37 with anti-cit-LL37 antibody reactivity ([1]; Spearman, Figure 2c) | Correlation of anti-carb-LL37 with anti-native LL37 antibody reactivity ([1]; Spearman, Figure 2d left) | Proliferation of SLE CD4 T-cells ([2]; BrdU incorporation, stimulation index, Wilcoxon's test) | BrdU-positive CD3+CD4+ T-cells ([2]; BrdU staining, representative zebra plot, Figure S5a) [%] | SLE patients responding by T-cell proliferation [2] [%] | Correlation of T-cell responses to carb-LL37 and native LL37 ([2]; SI, Spearman, Figure 3b) | Correlation of T-cell proliferation with SLEDAI or autoantibodies to LL37 ([2]; SI, Spearman, Figure 4a,b) | Antigen efficiency compared to cit-LL37 ([2]; SLE cohort analyzed) | Net charge [3] | IFN-α response of pDCs to peptide alone [4] | IFN-I/IFN-α production by pDCs, peptide-DNA complex ([4]; peptide premixed with human DNA (15 μg/mL)) |
| --- | --- | --- | --- | --- | --- | --- | --- | --- | --- | --- | --- | --- | --- | --- | --- |
| L*LGDFFRK*SK*EK*IGKEFK*RIVQRIK*DFLRNLVPRTES [carb-LL37] | 62 | significant SLE serum antibody reactivity | significantly higher anti-carb-LL37 antibody reactivity | A significant correlation was appreciated | correlated significantly with anti-cit-LL37 antibody reactivity | less but still in a significant manner | significant proliferation of SLE CD4 T-cells, although less efficiently than cit-LL37 | 18.3 | 32 | correlated moderately | moderate but significant correlation | less efficient antigen compared to cit-LL37 | +1 | no IFN-α response | – |
| LLGDFFR(cit)KSKEKIGKEFKR(cit)IVQR(cit)IKDFLR(cit)NLVPR(cit)TES [cit-LL37, LL37 citrullinated at all five arginine sites] | – | – | non-significant anti-cit- and anti-native-LL37 antibody increase | both responses also correlated with SLEDAI | – | – | – | – | 52 | – | – | – | +1 | no IFN-α response | did not stimulate any IFN-I production by pDCs |
